Laboratory results: the NIST ThermoML archive (doi:10.1016/j.jct.2006.02.008)
± gives the expanded uncertainty stated by the source.

Assays:
[1] = refractive index (Na D-line) (dimensionless); settings: 293.2 K; 101.33 kPa; Liquid; Standard Abbe refractometry

Which results are given for `CCOC(=O)c1ccccc1C(=O)OCC` [diethyl phthalate]?
refractive index [1]: 1.5016 ± 0.0007; mass density (293.2 K, 101.33 kPa, Liquid, Pycnometric method): 1118.2 ± 1 kg/m3

Which Normal melting temperature (Crystal, visual observation) does the source give for `O=C1C=CC(=O)O1` [maleic anhydride] here?
The Normal melting temperature was 52.7 ± 0.5 °C.
